# Assay results from patent US10111885B2, “Compositions and therapeutic methods for the treatment of complement-associated diseases” (Resverlogix Corp., priority 2015, dated 2018).
# pIC50: −log10 of the molar value. Read-outs that look alike come from different tables or passages of the source.
# Tests used:
# Type in all cases: cell-based, human
# [1] = system: C4a/C4b mRNA; experiment: Complement gene mRNA expression, TaqMan real-time PCR, Huh-7 cells
# Text: (§1) In this example, mRNA levels from cultured cells were quantitated. The assay can be used to determine the effect of compound(s) on regulating mRNA levels, including those compounds in the present invention. Complement genes are expressed at high endogenous levels, but their expression can also be stimulated with various cytokines in inflammatory conditions. Experiments in this example target both basal and inflammatory complement gene expression. Compound mediated changes in gene expression and resulting mRNA levels are presented in Tables 2, 3 and 4 as well as FIGS. 1, 2, 3 and 4 below.
# (§2) Huh-7 and HepG2 cells are liver-derived cell lines and are models for what can occur in the liver. Huh-7 cells (JCRB Cell Bank) were introduced to 96-well plates (^˜2.5×10^5 per well) in 100 μL DMEM containing 10% (v/v) FBS, 100 U/mL penicillin, 100 ug/mL streptomycin and 5 ug/mL plasmocin (all reagents from Gibco, except for the former, which was obtained from Invivogen). After 24 h, Huh-7 cells were treated with compounds in the same media formulation used for plating, and supplemented with 0.1% DMSO for the amount of time indicated in tables 2, 3, and 4. For select experiments, 24 h post-plating, cells were treated with cytokines and the compound of interest simultaneously, for a total treatment time of 48 h. Alternatively, 24 h after plating, cells were pre-treated with cytokines for 24 h before adding the compound of interest for 48 h. HepG2 cells (ATCC) were cultured in 96-well plates (^˜2.5×10^5 per well) in MEM containing 10% FBS, 1× non-essential amino acids, 1 mM sodium pyruvate, 2 mM L-glutamine, 100 U/mL penicillin, 100 ug/mL streptomycin and 5 ug/mL plasmocin. Serum amount was reduced to 0.5% for treatments with compound or cytokines. Timing of treatment of HepG2 cells with compounds and cytokines was as described for Huh-7 cells. Primary human hepatocytes (CellzDirect/Life Technologies) were plated in collagen coated 96-well plates at 70 000 cells/well, then overlaid with Matrigel™ as recommended by the supplier. Cells were treated with compounds of interest and/or cytokines for the indicated time points in the recommended media supplemented with 0.1% DMSO and 10% FBS (v/v). Cells were harvested by mRNA Catcher PLUS Kit (Life Technologies) followed by real-time PCR using the RNA UltraSense One-Step qRT-PCR System. The level of the mRNA of interest was measured by TaqMan real-time PCR relative to the endogenous control cyclophilin A in the same sample. Data were acquired using the ViiA-7 Real Time PCR System (Applied Biosystems).
# (§3) Downregulation of expression of components of the complement cascade will result in reduced activity of the pathway and thus will constitute a positive result. Tables 2 and 3 list the concentration of compounds at which the level of the indicated mRNA is reduced by 50%, as well as the duration of treatment with compound. Table 4 lists the maximum reduction in the indicated mRNA measured in primary human hepatocytes treated with compounds for up to 72 hours. FIGS. 1, 2, 3 and 4 show effects of compounds on cytokine-induced (i.e. inflammatory) expression of complement genes in Huh-7 cells and HepG2 cells.
# [2] = system: C3 mRNA; experiment: Complement gene mRNA expression, TaqMan real-time PCR, HepG2 cells; conditions: for pIC50: Homo sapiens
# Text: as §1, §2, §3
# [3] = system: C4a/C4b mRNA; experiment: as above; conditions: for pIC50: Homo sapiens, HepG2, 72 h, read-out: C4a/C4b (72 h) mRNA, half maximal inhibitory concentration (IC50)
# Text: as §1, §2, §3
# [4] = system: C5 mRNA; experiment: as above; conditions: for pIC50: Homo sapiens, HepG2, 72 h, read-out: C5 (72 h) mRNA, half maximal inhibitory concentration (IC50)
# Text: as §1, §2, §3
# [5] = system: complement C3 protein; experiment: Secreted complement protein ELISA, Huh-7 cells; conditions: for C3 secretion, percent maximum reduction in protein levels: Huh-7, 72 h, ± standard deviation
# Description: (§4) In this example, protein secretion from cells grown in culture in the presence of compound of interest was analyzed by enzyme linked immunosorbent assay (ELISA). In some cases, cultured cells were treated with cytokines and the compound of interest to mimic an inflammatory state. The method can be used to determine the effect of compounds, including those in the present invention, on the secretion of specific proteins from cells grown in culture under basal and cytokine stimulated (i.e. inflammatory) conditions (Table 7, FIGS. 5 and 6).
# (§5) Huh-7 cells (JCRB Cell Bank) were introduced to 24-well plates in 500 μL DMEM supplemented with 10% (v/v) FBS, 100 U/mL penicillin, 100 ug/mL streptomycin and 5 ug/mL plasmocin (all reagents from Gibco, except for the former, which comes from Invivogen) at 200 000 cells/well. After 24 h, cells were treated with the compound of interest and/or cytokines in DMEM with 10% FBS containing 0.1% DMSO for a total treatment time of 72 h. Fresh media containing compounds and/or cytokines was introduced in the final 24 h of the experiment. At harvest, media were collected, debris was removed by brief centrifugation, and ELISA assays for the indicated proteins were performed as per the manufacturer's protocol. To correct for differences in cell numbers, values obtained for complement proteins were normalized to values for transferrin. HepG2 cells (ATCC) were cultured in MEM containing 10% FBS, 1× non-essential amino acids, 1 mM sodium pyruvate, 2 mM L-glutamine, 100 U/mL penicillin, 100 ug/mL streptomycin and 5 ug/mL plasmocin. Serum amount was reduced to 0.5% when compounds were present. Treatment combinations and timing were as described above for Huh-7 cells. Primary human hepatocytes (CellzDirect/Life Technologies) were plated in collagen coated 96-well plates at 70 000 cells/well, then overlaid with Matrigel™ as recommended by the supplier. Cells were treated with compounds of interest with or without the indicated cytokines for a total of 72 h in the recommended media supplemented with 10% FBS and 0.1% DMSO (v/v). Media were collected for measurements of secreted proteins.
# (§6) The ELISA kits for detection of complement C3, C4, C5 and C9 were obtained from AssayPro (St. Charles, Mo.), while the ELISA reagents for transferrin detection were from Bethyl Laboratories (Montgomery, Tex.). Data were collected on a Thermo Scientific Multiskan GO apparatus. Downregulation of expression of components of the complement cascade will result in reduced activity of the pathway and thus will constitute a positive result.
# [6] = system: complement C4 protein; experiment: Secreted complement protein ELISA, Huh-7 cells; conditions: for C4 secretion, percent maximum reduction in protein levels: Huh-7, 72 h, ± standard deviation
# Description: as §4, §5, §6
# [7] = system: complement C5 protein; experiment: Secreted complement protein ELISA, Huh-7 cells; conditions: for C5 secretion, percent maximum reduction in protein levels: Huh-7, 72 h, ± standard deviation
# Description: as §4, §5, §6
# [8] = Homo sapiens, read-out: C4a/C4b (72 h) mRNA, half maximal inhibitory concentration (IC50), Huh-7, 72 h treatment
# [9] = HepG2, 72 h, read-out: C3 (72 h) mRNA, half maximal inhibitory concentration (IC50)
# [10] = HepG2 pre-treated with cytokines
# [11] = HepG2 treated simultaneously with cytokines
# [12] = 30 uM, Huh-7 treated simultaneously with IL-6
smiles,measurement,setting,value
"Cc1sc2c(c1C)C(c1ccc(Cl)cc1)=N[C@@H](CC(=O)OC(C)(C)C)c1nnc(C)n1-2 [JQ1, (S)-tert-butyl 2-(4-(4-chlorophenyl)-2,3,9-trimethyl-6H-thieno[3,2-f][1,2,4]triazolo[4,3-a][1,4]diazepin-6-yl)acetate, reference compound]",pIC50,[1]; [8],7.15
same,IC50,"[1]; Homo sapiens, Huh-7, 48 h treatment (Table 3), read-out: mRNA expression in Huh-7 cells: IC50 (uM), C4",0.065 µM
same,pIC50,"[2]; HepG2, 48 h, read-out: C3 (48 h) mRNA, half maximal inhibitory concentration (IC50)",6.70
same,pIC50,[2]; [9],6.31
same,pIC50,[3],6.60
same,pIC50,[4],6.34
same,"C3 secretion, percent maximum reduction in protein levels",[5]; 0.75 uM,99 ± 1%
same,"C4 secretion, percent maximum reduction in protein levels",[6]; 0.75 uM,81 ± 6%
same,"C5 secretion, percent maximum reduction in protein levels",[7]; 0.75 uM,50 ± 13%
"COc1cc(OC)c2c(=O)[nH]c(-c3cc(C)c(OCCO)c(C)c3)nc2c1 [RVX000222, 2-(4-(2-hydroxyethoxy)-3,5-dimethylphenyl)-5,7-dimethoxyquinazolin-4(3H)-one]",pIC50,[1]; [8],5.27
same,pIC50,"[1]; Homo sapiens, Huh-7, 48 h treatment, read-out: C4a/C4b (48 h) mRNA, half maximal inhibitory concentration (IC50)",5.20
same,expression of complement component 4 at the mRNA level (FIG. 3),[1]; Huh-7 pre-treated with cytokines,reduces expression
same,expression of complement component 4 at the mRNA level (FIG. 1),[1]; Huh-7 treated simultaneously with cytokines,reduces expression
same,expression of complement component 3 at the mRNA level (FIG. 4),[2]; [10],reduces expression
same,expression of complement component 3 at the mRNA level (FIG. 2),[2]; [11],reduces expression
same,pIC50,[2]; [9],4.60
same,expression of complement component 4 at the mRNA level (FIG. 4),[3]; [10],reduces expression
same,expression of complement component 4 at the mRNA level (FIG. 2),[3]; [11],reduces expression
same,pIC50,[3],5.00
same,expression of complement component 5 at the mRNA level (FIG. 4),[4]; [10],reduces expression
same,expression of complement component 5 at the mRNA level (FIG. 2),[4]; [11],reduces expression
same,pIC50,[4],4.70
same,"C3 secretion, percent maximum reduction in protein levels",[5]; 30 uM,87 ± 9%
same,secretion of C3 protein (FIG. 5),[5]; [12],reduces secretion
same,"C4 secretion, percent maximum reduction in protein levels",[6]; 30 uM,79 ± 3%
same,secretion of C4 protein (FIG. 5),[6]; [12],reduces secretion
same,"C5 secretion, percent maximum reduction in protein levels",[7]; 30 uM,53 ± 7%
same,secretion of C5 protein (FIG. 5),[7]; [12],reduces secretion
